Measured values as given in paper PMC10480232 (Scientific Reports, 2023).
Residues, ends and D or L forms follow the SMILES beside them. No end group written: not given here.

Key:
[1] = system: SARS-CoV-2; conditions: 1 h
[2] = system: human red blood cells
[3] = system: HEK293T cells
[4] = system: Vero hACE2 cells
[5] = system: SARS-CoV-2 (nCoV/USA_WA1/2020)

Molecule | SARS-CoV-2 inhibition at 50 µM [1] | also measured
IKNVELNIENLGERIKNAKKKVWEKIKSFGRRIKDFFRKPSPEVEP [Bat Cathelicidin 4] | > 50% | –
CC[C@H](C)[C@H](NC(=O)[C@H](CO)NC(=O)[C@H](CCCCN)NC(=O)[C@H](CCCNC(=N)N)NC(=O)[C@H](CC(C)C)NC(=O)[C@H](CCCCN)NC(=O)[C@H](CCCCN)NC(=O)[C@@H](NC(=O)[C@H](CCCNC(=N)N)NC(=O)[C@H](CCCCN)NC(=O)[C@@H](N)CCCNC(=N)N)[C@@H](C)CC)C(=O)N[C@@H](CCCCN)C(=O)N[C@@H](CCCCN)C(=O)N[C@@H](CCCNC(=N)N)C(=O)N[C@@H](CC(C)C)C(=O)N[C@@H](CCCCN)C(=O)N[C@@H](CCCCN)C(=O)N[C@@H](CC(C)C)C(=O)N1CCC[C@H]1C(=O)N[C@@H](Cc1ccccc1)C(=O)N[C@@H](CCC(=O)O)C(=O)N[C@H](C(=O)N1CCC[C@H]1C(=O)N[C@@H](CC(C)C)C(=O)N[C@H](C(=O)N[C@@H](Cc1ccccc1)C(=O)N[C@@H](CO)C(=O)N[C@H](C(=O)N1CCC[C@H]1C(=O)N[C@@H](Cc1ccccc1)C(=O)O)[C@@H](C)CC)C(C)C)C(C)C [PC1a] (H-RKRIKKLRKSIKKRLKKLPFEVPLVFSIPF-OH; N-terminus and C-terminus assumed) | > 50% | –
CC[C@H](C)[C@H](NC(=O)[C@H](CCCCN)NC(=O)[C@H](CCCCN)NC(=O)[C@H](CC(C)C)NC(=O)[C@H](CCCNC(=N)N)NC(=O)[C@H](CCCCN)NC(=O)[C@H](CCCNC(=N)N)NC(=O)[C@@H](NC(=O)[C@H](CCCCN)NC(=O)[C@H](CCCCN)NC(=O)[C@H](CCCNC(=N)N)NC(=O)[C@H](CC(C)C)NC(=O)[C@H](CCCNC(=N)N)NC(=O)[C@H](CCCNC(=N)N)NC(=O)[C@H](Cc1ccccc1)NC(=O)[C@H](CCCNC(=N)N)NC(=O)CNC(=O)[C@@H](N)C(C)C)[C@@H](C)O)C(=O)NCC(=O)N[C@@H](CCCCN)C(=O)N[C@H](C(=O)N[C@@H](CC(C)C)C(=O)N[C@@H](CCCCN)C(=O)N[C@@H](Cc1c[nH]c2ccccc12)C(=O)N[C@H](C(=O)N1CCC[C@H]1C(=O)N1CCC[C@H]1C(=O)N[C@H](C(=O)N[C@H](C(=O)NCC(=O)N[C@@H](CO)C(=O)N[C@H](C(=O)N1CCC[C@H]1C(=O)N[C@@H](CC(C)C)C(=O)NCC(=O)N[C@@H](CS)C(=O)NCC(=O)O)[C@@H](C)CC)C(C)C)[C@@H](C)CC)[C@@H](C)CC)C(C)C [PMAP-36R] (H-VGRFRRLRKKTRKRLKKIGKVLKWIPPIVGSIPLGCG-OH) | > 50% | hemolytic activity (in words) [2]: considerable hemolytic activity; HEK293T TD50 [3]: 24.61 µM; Vero TD50 48 h [4]: 23.47 µM
CC[C@H](C)[C@H](NC(=O)[C@H](CCCNC(=N)N)NC(=O)[C@H](CCC(=O)O)NC(=O)CN)C(=O)N[C@@H](CCCCN)C(=O)N[C@@H](CC(N)=O)C(=O)N[C@@H](C)C(=O)N[C@@H](CCCCN)C(=O)N[C@@H](CCCCN)C(=O)N[C@@H](CCCCN)C(=O)N[C@H](C(=O)N[C@@H](Cc1c[nH]c2ccccc12)C(=O)N[C@@H](CCC(=O)O)C(=O)N[C@@H](CCCCN)C(=O)N[C@H](C(=O)N[C@@H](CCCCN)C(=O)N[C@@H](CO)C(=O)N[C@@H](Cc1ccccc1)C(=O)NCC(=O)N[C@@H](CCCNC(=N)N)C(=O)N[C@@H](CCCNC(=N)N)C(=O)N[C@H](C(=O)N[C@@H](CCCCN)C(=O)N[C@@H](CC(=O)O)C(=O)N[C@@H](Cc1ccccc1)C(=O)N[C@@H](Cc1ccccc1)C(=O)N[C@@H](CCCNC(=N)N)C(=O)N[C@@H](CCCCN)C(=O)N1CCC[C@H]1C(=O)N[C@@H](CO)C(=O)N1CCC[C@H]1C(=O)N[C@@H](CCC(=O)O)C(=O)N[C@H](C(=O)N[C@@H](CCC(=O)O)C(=O)N1CCC[C@H]1C(=O)O)C(C)C)[C@@H](C)CC)[C@@H](C)CC)C(C)C [Bat Cathelicidin 4c] (H-GERIKNAKKKVWEKIKSFGRRIKDFFRKPSPEVEP-OH; N-terminus and C-terminus assumed) | > 50% | –
CC[C@H](C)[C@H](NC(=O)[C@@H]1CCCN1C(=O)[C@@H]1CCCN1C(=O)[C@@H](NC(=O)[C@H](Cc1c[nH]c2ccccc12)NC(=O)[C@H](CCCCN)NC(=O)[C@H](CC(C)C)NC(=O)[C@@H](NC(=O)[C@H](CCCCN)NC(=O)CNC(=O)[C@@H](NC(=O)[C@H](CCCCN)NC(=O)[C@H](CCCCN)NC(=O)[C@H](CC(C)C)NC(=O)[C@H](CCCNC(=N)N)NC(=O)[C@H](CCCCN)NC(=O)[C@H](CCCNC(=N)N)NC(=O)[C@@H](NC(=O)[C@H](CCCCN)NC(=O)[C@H](CCCCN)NC(=O)[C@H](CCCNC(=N)N)NC(=O)[C@H](CC(C)C)NC(=O)[C@H](CCCNC(=N)N)NC(=O)[C@H](CCCNC(=N)N)NC(=O)[C@H](Cc1ccccc1)NC(=O)[C@H](CCCNC(=N)N)NC(=O)CNC(=O)[C@@H](N)C(C)C)[C@@H](C)O)[C@@H](C)CC)C(C)C)[C@@H](C)CC)C(=O)O [p9C] (H-VGRFRRLRKKTRKRLKKIGKVLKWIPPI-OH) | – | anti-SARS-CoV-2 activity relative to PMAP-36R (in words) [5]: none
CC[C@H](C)[C@H](NC(=O)[C@H](CO)NC(=O)CNC(=O)[C@@H](NC(=O)[C@@H](NC(=O)[C@@H]1CCCN1C(=O)[C@@H]1CCCN1C(=O)[C@@H](NC(=O)[C@H](Cc1c[nH]c2ccccc12)NC(=O)[C@H](CCCCN)NC(=O)[C@H](CC(C)C)NC(=O)[C@@H](NC(=O)[C@H](CCCCN)NC(=O)CNC(=O)[C@@H](NC(=O)[C@H](CCCCN)NC(=O)[C@H](CCCCN)NC(=O)[C@H](CC(C)C)NC(=O)[C@H](CCCNC(=N)N)NC(=O)[C@H](CCCCN)NC(=O)[C@H](CCCNC(=N)N)NC(=O)[C@@H](NC(=O)[C@H](CCCCN)NC(=O)[C@H](CCCCN)NC(=O)[C@H](CCCNC(=N)N)NC(=O)[C@H](CC(C)C)NC(=O)[C@H](CCCNC(=N)N)NC(=O)[C@H](CCCNC(=N)N)NC(=O)[C@H](Cc1ccccc1)NC(=O)[C@H](CCCNC(=N)N)NC(=O)CNC(=O)[C@@H](N)C(C)C)[C@@H](C)O)[C@@H](C)CC)C(C)C)[C@@H](C)CC)[C@@H](C)CC)C(C)C)C(=O)O [p5C] (H-VGRFRRLRKKTRKRLKKIGKVLKWIPPIVGSI-OH) | – | anti-SARS-CoV-2 activity relative to PMAP-36R (in words) [5]: little inhibitory activity
CC[C@H](C)[C@H](NC(=O)[C@H](CCCCN)NC(=O)[C@H](CCCCN)NC(=O)[C@H](Cc1ccccc1)NC(=O)[C@H](Cc1ccccc1)NC(=O)[C@H](CCCCN)NC(=O)[C@H](CCCCN)NC(=O)[C@H](Cc1ccccc1)NC(=O)[C@H](CCCNC(=N)N)NC(=O)[C@@H](N)CCCCN)C(=O)N[C@@H](CCCCN)C(=O)N[C@@H](CCCCN)C(=O)N[C@@H](CO)C(=O)N[C@H](C(=O)N[C@@H](CCCCN)C(=O)N[C@@H](CCCCN)C(=O)N[C@@H](CCCNC(=N)N)C(=O)N[C@H](C(=O)N[C@@H](CCCCN)C(=O)N[C@@H](CCCCN)C(=O)N[C@@H](CC(C)C)C(=O)N[C@@H](Cc1ccccc1)C(=O)N[C@@H](CCCCN)C(=O)N[C@@H](CCCCN)C(=O)N1CCC[C@H]1C(=O)N[C@@H](CCCNC(=N)N)C(=O)N[C@H](C(=O)N[C@H](C(=O)N1CCC[C@H]1C(=O)N[C@H](C(=O)N[C@@H](CO)C(=O)N[C@H](C(=O)N1CCC[C@H]1C(=O)N[C@@H](Cc1ccccc1)C(=O)O)[C@@H](C)CC)[C@@H](C)CC)[C@@H](C)CC)C(C)C)C(C)C)C(C)C [TS] (H-KRFKKFFKKIKKSVKKRVKKLFKKPRVIPISIPF-OH; N-terminus and C-terminus assumed) | > 50% | –
CC[C@H](C)[C@H](NC(=O)[C@H](CCCCN)NC(=O)[C@H](CCCCN)NC(=O)[C@@H](N)CC(C)C)C(=O)NCC(=O)N[C@@H](CCCCN)C(=O)N[C@H](C(=O)N[C@@H](CC(C)C)C(=O)N[C@@H](CCCCN)C(=O)N[C@@H](Cc1c[nH]c2ccccc12)C(=O)N[C@H](C(=O)N1CCC[C@H]1C(=O)N1CCC[C@H]1C(=O)N[C@H](C(=O)N[C@H](C(=O)NCC(=O)N[C@@H](CO)C(=O)N[C@H](C(=O)N1CCC[C@H]1C(=O)N[C@@H](CC(C)C)C(=O)NCC(=O)N[C@@H](CS)C(=O)NCC(=O)O)[C@@H](C)CC)C(C)C)[C@@H](C)CC)[C@@H](C)CC)C(C)C [p14N] (H-LKKIGKVLKWIPPIVGSIPLGCG-OH) | – | anti-SARS-CoV-2 activity relative to PMAP-36R (in words) [5]: no inhibition
RTKRFRKLGNLLQKGGQKIGQKIERIGQKIKDFFSNLVPRQEGA [Pangolin 1] | > 50% | –
CC[C@H](C)[C@H](NC(=O)[C@H](CCCNC(=N)N)NC(=O)[C@@H]1CCCN1C(=O)[C@@H](NC(=O)[C@@H]1CCCN1C(=O)[C@H](Cc1ccccc1)NC(=O)[C@H](CO)NC(=O)[C@@H]1CCCN1C(=O)[C@@H]1CCCN1C(=O)[C@H](Cc1ccccc1)NC(=O)[C@H](Cc1c[nH]c2ccccc12)NC(=O)[C@@H]1CCCN1C(=O)[C@@H]1CCCN1C(=O)[C@@H]1CCCN1C(=O)[C@H](Cc1c[nH]c2ccccc12)NC(=O)[C@H](CCC(N)=O)NC(=O)[C@H](Cc1c[nH]c2ccccc12)NC(=O)[C@H](CCCNC(=N)N)NC(=O)[C@H](CC(C)C)NC(=O)[C@@H]1CCCN1C(=O)[C@@H](NC(=O)[C@@H]1CCCN1C(=O)[C@H](Cc1c[nH]c2ccccc12)NC(=O)[C@H](Cc1ccccc1)NC(=O)[C@@H]1CCCN1C(=O)[C@@H](NC(=O)[C@H](CCCNC(=N)N)NC(=O)[C@@H](N)CCCNC(=N)N)[C@@H](C)CC)[C@@H](C)CC)[C@@H](C)CC)C(=O)N[C@@H](CO)C(=O)N[C@@H](CCCNC(=N)N)C(=O)N[C@@H](CCCCN)C(=O)N[C@@H](CCCNC(=N)N)C(=O)O [Beluga 1] (H-RRIPFWPIPLRWQWPPPWFPPSFPIPRISRKR-OH; N-terminus and C-terminus assumed) | > 50% | –
CC[C@H](C)[C@H](NC(=O)CNC(=O)[C@@H](NC(=O)[C@H](CCCCN)NC(=O)[C@@H](NC(=O)[C@H](CCCCN)NC(=O)[C@H](CCCCN)NC(=O)[C@H](Cc1ccccc1)NC(=O)[C@H](Cc1ccccc1)NC(=O)[C@H](CC(N)=O)NC(=O)[C@H](CCCCN)NC(=O)[C@H](Cc1ccccc1)NC(=O)[C@H](CCCNC(=N)N)NC(=O)[C@@H](N)CCCCN)[C@@H](C)CC)[C@@H](C)O)C(=O)N[C@@H](CCCCN)C(=O)N[C@@H](CCCCN)C(=O)N[C@H](C(=O)N[C@H](C(=O)N[C@@H](CCCCN)C(=O)N[C@@H](CCCCN)C(=O)N[C@H](C(=O)N[C@@H](CCCCN)C(=O)N[C@@H](CCC(=O)O)C(=O)O)[C@@H](C)O)[C@@H](C)CC)C(C)C [NS] (H-KRFKNFFKKIKTGIKKVIKKTKE-OH; N-terminus and C-terminus assumed) | > 50% | –
